Experimental data published in US20230250123A1, “GUT MICROBIOTA BIOACTIVATED PDE4 INHIBITOR PRECURSORS” (Giiant Pharma Inc., priority 2020, published 2023).

Tests used:
[1] = test system: LPS-induced TNFα in human whole blood; experiment: LPS-induced TNFα assay in human whole blood; type: cell-based; details: human whole blood from 12 healthy volunteers, LPS 1 µg/mL, 24 h; read-out: average IC50, TNFα inhibition
[2] = Bidirectional Caco-2 permeability assay; type: in vitro ADME; details: human; Caco-2, 10 µM, apical pH 6.0 / basolateral pH 7.4, average of 2 determinations
Experimental: In vitro glycoside prodrug permeability assessment. The permeability of the glycoside prodrugs were measured using the bidirectional Caco-2 assay. Caco-2 cells were seeded onto permeable polycarbonate supports in 12-well Costar Transwell plates and allowed to grow and differentiate for 21-25 days. On day 24, culture medium (DMEM supplemented with 10% FBS, 1% non-essential amino acids and penicillin/streptomycin) was removed from both sides of the transwell inserts and cells were rinsed with warm HBSS. […] The buffer in the donor chamber (apical side for A-to-B assay, basolateral side for B-to-A assay) was removed and replaced with the working solution (10 µM test article in transport buffer). The plates were then placed at 37° C. under light agitation. At designated time points (30, 60 and 90 min); an aliquot of transport buffer from the receiver chamber was removed and replenished with fresh transport buffer. Samples were quenched with ice-cold CH3CN containing internal standard and then centrifuged to precipitate the protein. Resulting supernatants were further diluted with 50/50 ACN/H2O (H2O only for Atenolol) and submitted for LC/MS/MS analysis. […] Atenolol and propranolol were tested as low and […] permeability references. […] The apparent permeability (Papp, measured in cm/s) of a compound is determined according to the following formula: […]
Where dQ/dt is the net rate of appearance in the receiver compartment, A is the area of the Transwell measured in cm^2 (1.12 cm^2), C0 is the initial concentration of compound added to the donor chamber and 60 is the conversion factor for the minute to second.

PDE4B1 = PDE4B1 (Homo sapiens, UniProt Q07343); experiment: Inhibitory potency against PDE4 isozymes (FAM-cAMP fluorescence polarization), PDE4B1
Chain of PDE4B1 (Q07343 whole entry, species assumed): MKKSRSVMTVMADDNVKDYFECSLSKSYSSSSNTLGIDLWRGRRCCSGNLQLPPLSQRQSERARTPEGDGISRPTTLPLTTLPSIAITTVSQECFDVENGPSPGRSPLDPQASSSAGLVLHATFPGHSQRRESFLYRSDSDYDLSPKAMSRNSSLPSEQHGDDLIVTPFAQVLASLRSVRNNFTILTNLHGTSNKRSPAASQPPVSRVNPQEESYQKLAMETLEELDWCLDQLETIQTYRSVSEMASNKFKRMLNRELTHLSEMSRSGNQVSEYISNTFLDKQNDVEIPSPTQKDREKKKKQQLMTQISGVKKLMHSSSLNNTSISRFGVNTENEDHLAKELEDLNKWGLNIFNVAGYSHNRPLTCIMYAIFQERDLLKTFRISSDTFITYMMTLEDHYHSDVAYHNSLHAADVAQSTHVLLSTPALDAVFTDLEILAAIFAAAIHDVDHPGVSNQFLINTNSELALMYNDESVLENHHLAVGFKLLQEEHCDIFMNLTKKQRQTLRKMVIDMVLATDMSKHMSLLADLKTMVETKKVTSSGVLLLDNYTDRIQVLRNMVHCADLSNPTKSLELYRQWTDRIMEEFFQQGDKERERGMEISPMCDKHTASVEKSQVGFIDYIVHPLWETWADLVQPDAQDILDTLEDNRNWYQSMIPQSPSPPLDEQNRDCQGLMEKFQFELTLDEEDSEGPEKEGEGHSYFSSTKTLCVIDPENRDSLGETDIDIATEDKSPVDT

PDE4D2 = PDE4D2 (Homo sapiens, UniProt Q08499); experiment: Inhibitory potency against PDE4 isozymes (FAM-cAMP fluorescence polarization), PDE4D2
Chain of PDE4D2 (Q08499 303-809 limits assumed): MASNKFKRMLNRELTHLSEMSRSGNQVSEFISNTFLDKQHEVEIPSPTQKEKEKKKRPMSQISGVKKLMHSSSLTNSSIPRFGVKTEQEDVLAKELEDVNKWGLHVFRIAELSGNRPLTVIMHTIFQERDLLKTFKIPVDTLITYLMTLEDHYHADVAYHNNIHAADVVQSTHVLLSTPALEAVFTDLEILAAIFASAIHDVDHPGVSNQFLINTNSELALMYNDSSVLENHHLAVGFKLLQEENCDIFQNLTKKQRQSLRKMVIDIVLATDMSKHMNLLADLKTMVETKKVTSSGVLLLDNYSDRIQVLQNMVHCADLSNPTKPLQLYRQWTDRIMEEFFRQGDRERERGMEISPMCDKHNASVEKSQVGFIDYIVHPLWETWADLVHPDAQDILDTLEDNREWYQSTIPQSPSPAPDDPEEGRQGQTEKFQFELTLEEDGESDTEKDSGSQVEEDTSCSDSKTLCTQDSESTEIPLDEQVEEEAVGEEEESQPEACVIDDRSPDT

PDE4A1A = PDE4A1A (Homo sapiens, UniProt P27815); experiment: Inhibitory potency against PDE4 isozymes (FAM-cAMP fluorescence polarization), PDE4A1A
Chain of PDE4A1A (P27815 1-647 isoform P27815-4): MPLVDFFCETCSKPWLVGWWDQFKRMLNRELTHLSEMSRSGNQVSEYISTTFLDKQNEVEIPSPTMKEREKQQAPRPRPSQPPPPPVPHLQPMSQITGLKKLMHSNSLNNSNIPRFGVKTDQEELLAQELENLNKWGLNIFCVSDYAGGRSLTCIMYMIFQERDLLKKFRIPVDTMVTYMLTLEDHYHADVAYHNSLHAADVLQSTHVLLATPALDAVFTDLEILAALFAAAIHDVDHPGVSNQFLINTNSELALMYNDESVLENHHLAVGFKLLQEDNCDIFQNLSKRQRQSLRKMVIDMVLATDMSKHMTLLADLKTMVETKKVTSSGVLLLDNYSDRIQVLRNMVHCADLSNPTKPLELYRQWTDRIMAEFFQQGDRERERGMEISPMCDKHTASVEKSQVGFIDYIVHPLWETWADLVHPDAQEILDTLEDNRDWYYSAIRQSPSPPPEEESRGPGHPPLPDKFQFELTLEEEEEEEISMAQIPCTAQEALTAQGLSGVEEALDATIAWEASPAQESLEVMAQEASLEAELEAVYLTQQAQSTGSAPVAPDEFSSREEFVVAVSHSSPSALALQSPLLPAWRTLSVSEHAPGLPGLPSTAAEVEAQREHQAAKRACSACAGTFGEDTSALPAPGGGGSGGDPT

in vivo = details: C57BI/6, mouse, po
[3] = In vivo glycoside prodrug bioactivation, oral dosing to rats
[4] = In vitro rate of glycoside prodrug hydrolysis in feces supernatant, mouse; type: in vitro ADME; details: 100 µM, 37° C., pH 6.5, 24 hr
Experimental: (§1) In vitro rate of glycoside prodrugs hydrolysis. The metabolic stability of prodrug candidates to release the parent PDE4 inhibitor could be assessed in vitro according, but not restricted, to the following protocol: feces were collected overnight on a mixture of dry and wet ice in a metabolic cage. Ten volumes (v/w; 30 mL) of 100 mM phosphate buffer (pH 6.5) were added to 3 g of freshly collected rodent feces. The mixture was homogenized with a Stomacher Circulator 400 (2 × 1 min-cycles at 225 rpm). The mixture was transferred to a 50 mL tubes, centrifuged at 10 000xg for 10 min (4° C.) and the supernatant was passed through a 0.45 µm-filter. In a 96 deep-well plate, 198 µL of feces supernatant were aliquoted in 2 wells per compound. Each compound, including positive control, was tested in duplicate. Then 2 µL of 10 mM stock solution of each test compound were spiked in individual wells (duplicate) at a final concentration of 100 µM and samples were sealed and mixed 30 sec at 1000 rpm using a vortexer. Samples were incubated at 37° C. for the desired time in the Thermomixer with constant agitation (300 rpm). At desired time-point, 25 µL of reaction mixture was added to 225 µL of ice-cold quenching solution (acetonitrile + 0.1% (v/v) formic acid) to stop the bacterial enzymatic activity. The quenched incubates were mixed and centrifuged 10 min at 21 000xg at 4° C. A real t0 (no metabolism, 100% total recovery of unchanged prodrug) was generated by adding 22.5 µL of feces supernatant to 225 µL of ice-cold quenching solution (acetonitrile + 0.1% (v/v) formic acid). Then 2.5 µL of 1 mM solution of each test compounds was added, sealed, mixed thoroughly and centrifuged 10 min at 21 000xg at 4° C. All samples, including analytical standards, were analyzed by LC-MS/MS to measure the concentration of the parent PDE4 inhibitor released and the concentration of the corresponding prodrug remaining. A set criteria of 100% recovery is targeted where the summation of the % of prodrug remaining and the % of parent PDE4 inhibitor released should be 100% with an experimental error tolerance of ± 20%. When prodrugs represented by Formula (I) were incubated 24 hours under the conditions described above using mouse, rat and dog feces, the glycoside prodrugs were hydrolyzed to release the corresponding parent PDE4 inhibitor III (Table 3). As a negative control, when compound 4, 10 and 21 were incubated 24 hours under the conditions described above but in the absence of enzyme activities, using mouse feces extract supernatant inactivated by boiling the supernatant 10 minutes, 100% of the prodrugs were recovered unchanged.

[5] = In vitro rate of glycoside prodrug hydrolysis in feces supernatant, rat; type: in vitro ADME; details: 100 µM, 37° C., pH 6.5, 24 hr
Experimental: as §1

[6] = In vitro rate of glycoside prodrug hydrolysis in feces supernatant, dog; type: in vitro ADME; details: 100 µM, 37° C., pH 6.5, 24 hr
Experimental: In vitro rate of glycoside prodrugs hydrolysis. The metabolic stability of prodrug candidates to release the parent PDE4 inhibitor could be assessed in vitro according, but not restricted, to the following protocol: feces were collected overnight on a mixture of dry and wet ice in a metabolic cage. Ten volumes (v/w; 30 mL) of 100 mM phosphate buffer (pH 6.5) were added to 3 g of freshly collected rodent feces. The mixture was homogenized with a Stomacher Circulator 400 (2 × 1 min-cycles at 225 rpm). The mixture was transferred to a 50 mL tubes, centrifuged at 10 000xg for 10 min (4° C.) and the supernatant was passed through a 0.45 µm-filter. In a 96 deep-well plate, 198 µL of feces supernatant were aliquoted in 2 wells per compound. Each compound, including positive control, was tested in duplicate. Then 2 µL of 10 mM stock solution of each test compound were spiked in individual wells (duplicate) at a final concentration of 100 µM and samples were sealed and mixed 30 sec at 1000 rpm using a vortexer. Samples were incubated at 37° C. for the desired time in the Thermomixer with constant agitation (300 rpm). […] All samples, including analytical standards, were analyzed by LC-MS/MS to measure the concentration of the parent PDE4 inhibitor released and the concentration of the corresponding prodrug remaining. […]

[7] = Negative control: incubation in mouse feces extract supernatant inactivated by boiling; type: in vitro ADME; details: 24 hours, mouse feces supernatant boiled 10 minutes (no enzyme activities)
Experimental: as §1, with “A set criteria of 100% recovery is targeted where the summation of the % of prodrug remaining and the % of parent PDE4 inhibitor released should be 100% with an experimental error tolerance of ± 20%. When prodrugs represented by Formula (I) were incubated 24 hours under the conditions described above using mouse, rat and dog feces, the glycoside prodrugs were hydrolyzed to release the corresponding parent PDE4 inhibitor III (Table 3). As a negative control, when compound 4, 10 and 21 were incubated 24 hours under the conditions described above but in the absence of enzyme activities, using mouse feces extract supernatant inactivated by boiling the supernatant 10 minutes, 100% of the prodrugs were recovered unchanged.” left out

β-D-glucuronidase = experiment: Positive control: incubation with β-D-glucuronidase in phosphate buffer; type: in vitro ADME; details: β-D-glucuronidase 50U/mL, phosphate buffer pH 6.5, 37° C., 24 hours
[8] = In vivo glycoside prodrug bioactivation, oral dosing to C57BI/6 mice; details: labrasol/5%dextrose solution, over 48 hours
[9] = test system: type-IV cAMP-specific phosphodiesterases; experiment: Inhibitory potency against PDE4 isozymes (isozyme not given); type: biochemical; details: sample contaminated with 0.17% of IIIa, which accounts for 100% of the potency recorded; read-out: IC50 (PDE4, isozyme not stated)

Compound	Papp A→B at 10 µM [2] [×10⁻⁶ cm/s]	Prodrug Remaining @ 24 hr (%) [4] [%]	Prodrug Remaining @ 24 hr (%) [6] [%]	IC50 [1] [nM]	IC50 (PDE4B1) [nM]	IC50 (PDE4D2) [nM]	also measured
CC(C)(O)c1ccc([C@@H](Cc2ccc(=O)[nH]c2)c2ccc(OC(F)F)c(OC3CC3)c2)cn1 [IIIb, (S)-5-(2-(3-cyclopropoxy-4-(difluoromethoxy)phenyl)-2-(6-(2-hydroxypropan-2-yl)pyridin-3-yl)ethyl)pyridin-2(1H)-one]	–	–	–	< 50	< 10	< 10	Kp (in vivo): 200; time before which released IIIb was not detected in blood ([3]; compound 10 orally as aqueous suspension): ≥ 2 h
COC(=O)[C@H]1O[C@@H](Oc2ccc(C[C@H](c3ccc(C(C)(C)O)nc3)c3ccc(OC(F)F)c(OC4CC4)c3)cn2)[C@H](O)[C@@H](O)[C@@H]1O [Compound 10, (2S,3S,4S,5R,6S)-methyl 6-((5-((S)-2-(3-cyclopropoxy-4-(difluoromethoxy)phenyl)-2-(6-(2-hydroxypropan-2-yl)pyridin-3-yl)ethyl)pyridin-2-yl)oxy)-3,4,5-trihydroxytetrahydro-2H-pyran-2-carboxylate]	0.3	74	67	–	–	–	Prodrug Remaining @ 24 hr (%) [5]: 47%; prodrug recovered unchanged [7]: 100%; prodrug recovered unchanged (β-D-glucuronidase): 64%; extent of prodrug bioactivation (ratio of parent IIIb over residual prodrug 10 in excreted feces) ([3]; oral, aqueous suspension, over 24 hours): 96%; unchanged prodrug detected in excreted feces [8]: only trace amount

Continued, in another order:

Papp A→B at 10 µM [2] [×10⁻⁶ cm/s]	Prodrug Remaining @ 24 hr (%) [4] [%]	Prodrug Remaining @ 24 hr (%) [6] [%]	Compound	IC50 [1] [nM]	IC50 (PDE4B1) [nM]	IC50 (PDE4D2) [nM]	also measured
19.1	–	–	O=c1ccc(C[C@@H](c2ccc(OC(F)F)c(OC3CC3)c2)c2cnc(C(O)(C(F)(F)F)C(F)(F)F)s2)c[nH]1 [IIIa, (S)-5-(2-(3-cyclopropoxy-4-(difluoromethoxy)phenyl)-2-(2-(1,1,1,3,3,3-hexafluoro-2-hydroxypropan-2-yl)thiazol-5-yl)ethyl)pyridin-2(1H)-one]	< 50	< 10	< 10	IC50 (PDE4A1A): < 10 nM
–	65	75	CC(C)(O)c1ccc([C@@H](Cc2ccc(O[C@@H]3O[C@H](CO)[C@@H](O)[C@H](O)[C@H]3N)nc2)c2ccc(OC(F)F)c(OC3CC3)c2)cn1 [Compound 23, (2R,3S,4R,5R,6S)-5-amino-6-((5-((S)-2-(3-cyclopropoxy-4-(difluoromethoxy)phenyl)-2-(6-(2-hydroxypropan-2-yl)pyridin-3-yl)ethyl)pyridin-2-yl)oxy)-2-(hydroxymethyl)tetrahydro-2 H-pyran-3,4-diol]	–	–	–	–
0.2	62	–	N[C@H]1[C@H](Oc2ccc(C[C@@H](c3ccc(OC(F)F)c(OC4CC4)c3)c3cnc(C(O)(C(F)(F)F)C(F)(F)F)s3)cn2)O[C@H](CO)[C@@H](O)[C@@H]1O [Compound 22, (2R,3S,4R,5R,6S)-5-amino-6-((5-((S)-2-(3-cyclopropoxy-4-(difluoromethoxy)phenyl)-2-(2-(1,1,1,3,3,3-hexafluoro-2-hydroxypropan-2-yl)thiazol-5-yl)ethyl)pyridin-2-yl)oxy)-2-(hydroxymethyl)tetrahydro-2H-pyran-3,4-diol]	–	–	–	IC50 [9]: > 100 nM
